Measured values from ChEMBL document CHEMBL6134778, “Spiro-Azetidine Oxindoles as Long-Acting Injectables for Pre-Exposure Prophylaxis against Respiratory Syncytial Virus Infections” (J Med Chem, 2024).
Values after ≈ are worked out from the molar mass of the structure shown.

Experiments:
[1] = test system: Respiratory syncytial virus; experiment: Antiviral activity against RSV A2 harboring eGFP infected in human HeLa cells assessed as reduction in virus replication measured after 3 days by laser microscopy; assay type: functional, organism-based; details: 72 h
[2] = test system: Respiratory syncytial virus; experiment: Antiviral activity against RSV A2 harboring eGFP infected in human HeLa cells assessed as reduction in virus replication by measuring 3X protein-adjusted effective concentration for 90% inhibition measured after 3 days in presence of human serum albumin and alpha(1)-acid glycoprotein by laser microscopy; assay type: functional; details: time 3 day
[3] = test system: HeLa; experiment: Cytotoxicity against human HeLa cells assessed as reduction in cell viability at highest concentration measured after 3 days by ATPlite assay; assay type: toxicity, cell-based; details: 72 h, time 3 day
[4] = Chromatographic hydrophobicity index, logD of the compound at pH 7.4 by UPLC analysis; assay type: physicochemical; details: buffer
[5] = Equilibrium solubility of the compound […] at pH 7 measured after 3 days by LC-MS/MS analysis; assay type: physicochemical; details: time 3 day
[6] = Thermodynamic solubility in aqueous buffer at pH 7 incubated for 24 hrs by UPLC analysis; assay type: physicochemical; details: read-out: Therm_solubility
[7] = Intrinsic clearance in human liver microsomes assessed per mg protein at 1 uM measured after 60 mins in presence of NADPH by LC-MS/MS analysis; assay type: ADME, Microsome; details: read-out: CLH
[8] = Intrinsic clearance in human hepatocytes assessed per million cells at 1 uM measured after 180 mins by LC-MS/MS analysis; assay type: ADME, cell-based, Hepatocyte; details: read-out: CLH
[9] = Clearance in Sprague-Dawley rat at 1 mg/kg, iv by LC-MS/MS analysis; assay type: ADME, organism-based; details: in vivo
[10] = Volume of distribution at steady state in Sprague-Dawley rat at 1 mg/kg, iv by LC-MS/MS analysis; assay type: ADME, organism-based; details: in vivo, read-out: Vdss
[11] = test system: Rattus norvegicus; experiment: Particle size for the 50th percentile of the cumulative volume distribution in Sprague-Dawley rat at 50 mg/kg, IM […]; assay type: ADME, organism-based; details: in vivo
[12] = test system: Rattus norvegicus; experiment: Release rate constant in Sprague-Dawley rat at 50 mg/kg, IM measured over 12 weeks by LC-MS/MS analysis; assay type: ADME, organism-based; details: in vivo, 2016 h
[13] = Bioavailability in Sprague-Dawley rat assessed as dose released at 50 mg/kg, IM measured over 12 weeks by LC-MS/MS analysis; assay type: ADME, organism-based; details: in vivo
[14] = Clearance in Beagle dog at 0.25 mg/kg, iv by LC-MS/MS analysis; assay type: ADME, organism-based, Canis lupus familiaris; details: in vivo
[15] = Volume of distribution at steady state in Beagle dog at 0.25 mg/kg, iv by LC-MS/MS analysis; assay type: ADME, organism-based, Canis lupus familiaris; details: in vivo, read-out: Vdss
[16] = test system: Canis familiaris; experiment: Particle size for the 50th percentile of the cumulative volume distribution in Beagle dog at 20 mg/kg, IM […]; assay type: ADME, organism-based, Canis lupus familiaris; details: in vivo
[17] = test system: Canis familiaris; experiment: Release rate constant in Beagle dog at 20 mg/kg, IM by LC-MS/MS analysis; assay type: ADME, organism-based, Canis lupus familiaris; details: in vivo
[18] = Bioavailability in Beagle dog assessed as dose released at 20 mg/kg, IM by LC-MS/MS analysis; assay type: ADME, organism-based, Canis lupus familiaris; details: in vivo
[19] = Clearance in Sprague-Dawley rat at 2.5 mg/kg, iv by LC-MS/MS analysis; assay type: ADME, organism-based; details: in vivo
[20] = Volume of distribution at steady state in Sprague-Dawley rat at 2.5 mg/kg, iv by LC-MS/MS analysis; assay type: ADME, organism-based; details: in vivo, read-out: Vdss

| Compound | EC50 [1] [nM] | protein-adjusted EC90 [2] [ng/mL] | Activity [3] | CHI [4] | solubility at 72 h [5] [µM] | solubility thermodynamic at 24 h [6] [µg/mL] | microsomal CLint at 1 µM [7] [µL/min/mg] | hepatocyte CLint at 1 µM [8] [µL/min/1e6 cells] | clearance [9] [mL/min/kg] | Vd [10] [L/kg] | Median particle size (D50) [11] [um] | Ka [12] [h⁻¹] | bioavailability [13] [%] | clearance [14] [mL/min/kg] | Vd [15] [L/kg] | Particle size (D50) [16] [um] | Ka [17] [h⁻¹] | bioavailability [18] [%] | clearance [19] [mL/min/kg] | Vd [20] [L/kg] |
| --- | --- | --- | --- | --- | --- | --- | --- | --- | --- | --- | --- | --- | --- | --- | --- | --- | --- | --- | --- | --- |
| CC(C)C(=O)N1CC2(C1)C(=O)N(Cc1nc3cc(Cl)ccc3n1CCCCF)c1cnccc12 | 1 | 17 | Non-toxic | 2.14 | 361 (≈ 175 µg/mL) | 44 (≈ 90.9 µM) | < 7.7 | < 1.2 | 26.3 | 5.3 | 9.11 | 0.013 | 142 | 11.8 | 0.82 | 5.43 | 0.033 | 122 |  |  |
| CC(C)NC(=O)N1CC2(C1)C(=O)N(Cc1nc3cc(Cl)ccc3n1CCCC#N)c1ccccc12 | 0.58 | 60 | Non-toxic | 2.37 | < 0.25 | < 0.1 | < 7.7 | 1.5 |  |  | 5.48 | 0 | 21 | 4.9 | 0.56 | 5.34 | 0.001 | 51 | 21 | 3.2 |
| CC(C)NC(=O)N1CC2(C1)C(=O)N(Cc1nc3cc(Cl)ccc3n1CCCC(F)(F)F)c1cnccc12 | 0.23 | 3.7 | Non-toxic | 2.39 | 11 (≈ 5.88 µg/mL) | < 0.1 | < 7.7 | < 1.2 | 36.9 | 1.94 | 4.36 | 0.005 | 107 | 14.6 | 1.66 | 5.03 | 0.01 | 90 |  |  |
